The source of these data is patent US11312712B2, “Azabenzimidazoles and their use as AMPA receptor modulators” (Janssen Pharmaceutica NV, priority 2015, dated 2022).

GluA1o-γ8 (GRIA1o-CACNG8 fusion construct), sequence (P42261 other isoform, or with tags, fused parts or gaps): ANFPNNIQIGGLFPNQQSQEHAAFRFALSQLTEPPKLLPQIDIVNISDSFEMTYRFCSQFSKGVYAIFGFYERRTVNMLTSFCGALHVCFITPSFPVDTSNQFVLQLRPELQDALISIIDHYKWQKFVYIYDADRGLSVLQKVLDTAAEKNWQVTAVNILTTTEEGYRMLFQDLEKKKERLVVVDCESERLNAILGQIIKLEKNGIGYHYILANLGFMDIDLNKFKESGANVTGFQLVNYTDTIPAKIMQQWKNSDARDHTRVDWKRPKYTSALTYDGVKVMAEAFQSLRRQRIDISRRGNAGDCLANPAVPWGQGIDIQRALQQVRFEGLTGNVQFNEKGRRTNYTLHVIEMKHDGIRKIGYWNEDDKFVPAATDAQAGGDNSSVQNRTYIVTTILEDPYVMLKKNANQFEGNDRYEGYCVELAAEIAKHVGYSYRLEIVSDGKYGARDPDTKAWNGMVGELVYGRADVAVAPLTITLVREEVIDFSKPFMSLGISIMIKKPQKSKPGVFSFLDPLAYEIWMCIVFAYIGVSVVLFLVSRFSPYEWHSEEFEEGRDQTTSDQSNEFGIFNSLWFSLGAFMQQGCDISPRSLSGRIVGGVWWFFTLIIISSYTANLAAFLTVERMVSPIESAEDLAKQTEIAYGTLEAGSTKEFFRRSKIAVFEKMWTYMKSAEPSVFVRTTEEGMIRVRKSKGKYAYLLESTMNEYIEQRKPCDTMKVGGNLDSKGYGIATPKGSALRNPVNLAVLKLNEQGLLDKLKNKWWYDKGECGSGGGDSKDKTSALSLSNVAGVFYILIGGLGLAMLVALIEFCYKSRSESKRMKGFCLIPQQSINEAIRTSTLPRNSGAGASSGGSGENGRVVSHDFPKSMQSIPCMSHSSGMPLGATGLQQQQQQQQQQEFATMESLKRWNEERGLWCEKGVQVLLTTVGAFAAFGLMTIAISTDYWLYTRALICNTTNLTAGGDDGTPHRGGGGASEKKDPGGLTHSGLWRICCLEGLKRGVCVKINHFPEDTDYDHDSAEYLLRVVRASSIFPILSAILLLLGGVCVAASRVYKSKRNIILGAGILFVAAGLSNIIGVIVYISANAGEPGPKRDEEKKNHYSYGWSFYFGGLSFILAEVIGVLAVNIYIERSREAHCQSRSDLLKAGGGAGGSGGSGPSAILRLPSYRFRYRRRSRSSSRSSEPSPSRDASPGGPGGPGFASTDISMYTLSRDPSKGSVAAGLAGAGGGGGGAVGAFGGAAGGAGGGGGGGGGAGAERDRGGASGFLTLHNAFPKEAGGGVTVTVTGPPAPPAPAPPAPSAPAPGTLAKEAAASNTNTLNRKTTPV

In the assay the target is GluA1o-γ8 (GRIA1o-CACNG8 fusion construct) (Homo sapiens (Human), UniProt P42261+Q8WXS5). As to the kind of experiment: Calcium flux assay (FLIPR), inhibition of TARP γ8 dependent AMPA receptor activity. To be noted: GluA1o-γ8 (GRIA1o-CACNG8 fusion) in HEK293 cells, calcium flux after 15 μM glutamate. Type of assay: cell-based. The method in brief:
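Glutamate (15 μM) was added to a stable HEK293 line carrying the GluA1o–γ8 fusion, which had been preincubated with compound and calcium dye in HEPES buffer, pH 7.4. Normalized FLIPR fluorescence (no compound vs 10 μM CP465022) was fitted with four parameters; pIC50 is the midpoint's negative log.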
Background: Calcium flux is commonly read through the fluorescence of an indicator in the cells.
As usually defined, the IC50 is the concentration at which inhibition is half-maximal. Turning to `Fc1ccc(-c2cc3ccc(C(F)(F)F)nc3n2-c2ccc3[nH]ccc3c2)cc1` [Example 387, 2-(4-Fluorophenyl)-1-(1H-indol-5-yl)-6-(trifluoromethyl)pyrrolo[2,3-b]pyridine], the concentration for half-maximal inhibition (IC50) is 6.31 nM.

On to `Cc1cc(-n2c(C(C)C)nc3ccc(C(F)(F)F)nc32)cc2[nH]ncc12` [Example 311, 2-Isopropyl-3-(4-methyl-1H-indazol-6-yl)-5-(trifluoromethyl)imidazo[4,5-b]pyridine], for which the IC50 is 15.8 nM. In the case of `FC(F)(F)c1cc(N2CCOCC2)c2nc(C(F)(F)F)n(-c3ccc4[nH]ncc4c3)c2n1` [Example 231, 4-[3-(1H-Indazol-5-yl)-2,5-bis(trifluoromethyl)imidazo[4,5-b]pyridin-7-yl]morpholine], the IC50 is 3.98 nM. Regarding `CC(C)c1cc2cccnc2n1-c1cc(F)c2c(c1)CC(=O)N2` [Example 361, 7-Fluoro-5-(2-isopropylpyrrolo[2,3-b]pyridin-1-yl)indolin-2-one], the IC50 was 7.94 nM.

Turning to `Fc1ccc(-c2cc3ccc(F)nc3n2-c2ccc3[nH]ccc3c2)cc1` [Example 348, 6-Fluoro-2-(4-fluorophenyl)-1-(1H-indol-5-yl)pyrrolo[2,3-b]pyridine], the IC50 is 100 nM. To `CC(C)c1nc2ccc(C(F)(F)F)nc2n1-c1cc(Cl)c2[nH]ncc2c1` [Example 316, 3-(7-Chloro-1H-indazol-5-yl)-2-isopropyl-5-(trifluoromethyl)imidazo[4,5-b]pyridine] belongs 0.02 nM.

In the case of `Cc1cc(-n2cnc3ccc(C(F)(F)F)nc32)cc2cn[nH]c12` [Example 194, 3-(7-Methyl-1H-indazol-5-yl)-5-(trifluoromethyl)imidazo[4,5-b]pyridine], the IC50 is 20 nM. Turning to `Cc1cc(-n2c(C(C)(F)F)nc3ccc(C(F)(F)F)nc32)cc2c1NC(=O)C2` [Example 276, 5-[2-(1,1-Difluoroethyl)-5-(trifluoromethyl)imidazo[4,5-b]pyridin-3-yl]-7-methyl-indolin-2-one], the concentration for half-maximal inhibition (IC50) was 0.2 nM. For `CC(C)(C)c1ccc2nc(-c3ccc(F)cc3)n(-c3ccc4[nH]ncc4c3)c2n1` [Example 118, 5-tert-Butyl-2-(4-fluorophenyl)-3-(1H-indazol-5-yl)imidazo[4,5-b]pyridine] the value was 0.158 nM; for `Cc1cc(-n2c(CCCF)cc3ccc(C(F)(F)F)nc32)cc2cn[nH]c12` [Example 371, 2-(3-Fluoropropyl)-1-(7-methyl-1H-indazol-5-yl)-6-(trifluoromethyl)pyrrolo[2,3-b]pyridine], 0.0398 nM. For `FC(F)(F)c1ccc2nc(C(F)(F)F)n(-c3cc(Cl)c4cn[nH]c4c3)c2n1` [Example 265, 3-(4-Chloro-1H-indazol-6-yl)-2,5-bis(trifluoromethyl)imidazo[4,5-b]pyridine] the value was 126 nM; for `Cc1cc(-n2c(C(F)F)nc3ccc(C(F)(F)F)nc32)cc2cn[nH]c12` [Example 286, 2-(Difluoromethyl)-3-(7-methyl-1H-indazol-5-yl)-5-(trifluoromethyl)imidazo[4,5-b]pyridine], 0.0501 nM.

On to `Oc1cc(-c2nc3ccc(C(F)(F)F)nc3n2-c2ccc3[nH]ncc3c2)ccn1` [Example 225, 4-[3-(1H-Indazol-5-yl)-5-(trifluoromethyl)imidazo[4,5-b]pyridin-2-yl]pyridin-2-ol], for which the IC50 is 251 nM.

In the case of `Fc1cc(-c2nc3ccc(C(F)(F)F)nc3n2-c2ccc3[nH]ncc3c2)ccn1` [Example 165, 2-(2-Fluoro-4-pyridyl)-3-(1H-indazol-5-yl)-5-(trifluoromethyl)imidazo[4,5-b]pyridine], the IC50 is 1.58 nM. Consider `O=c1[nH]c2ccc(-n3c(-c4ccc(F)cc4)nc4cccnc43)cc2s1` [Example 20, 6-[2-(4-Fluorophenyl)imidazo[4,5-b]pyridin-3-yl]-3H-1,3-benzothiazol-2-one], for which the IC50 is 5.01 nM.

Regarding `CCc1nc2ccc(C(F)(F)F)nc2n1-c1ccc2[nH]ncc2c1` [Example 105, 2-Ethyl-3-(1H-indazol-5-yl)-5-(trifluoromethyl)imidazo[4,5-b]pyridine], the half-maximal inhibitory concentration (IC50) was 7.94 nM.

For the molecule `FC(F)(F)c1ccc2nc(C3CC3)n(-c3cc(Cl)c4[nH]ncc4c3)c2n1` [Example 307, 3-(7-Chloro-1H-indazol-5-yl)-2-cyclopropyl-5-(trifluoromethyl)imidazo[4,5-b]pyridine], the IC50 was 0.00501 nM.

Take `CCc1nc2ccc(C(F)(F)F)nc2n1-c1ccc2[nH]c(=O)sc2c1` [Example 44, 6-[2-Ethyl-5-(trifluoromethyl)imidazo[4,5-b]pyridin-3-yl]-3H-1,3-benzothiazol-2-one]: the IC50 was 0.398 nM. To `Cc1cc2ccc(C(F)(F)F)nc2n1-c1ccc2[nH]ncc2c1` [Example 354, 5-(2-Methyl-6-(trifluoromethyl)-1H-pyrrolo[2,3-b]pyridin-1-yl)-1H-indazole] belongs 0.501 nM; to `FC(F)c1ccc2nc(-c3ccccc3)n(-c3ccc4[nH]ncc4c3)c2n1` [Example 323, 5-(Difluoromethyl)-3-(1H-indazol-5-yl)-2-phenyl-imidazo[4,5-b]pyridine], 0.0501 nM.

As to `CC[C@H](C)c1nc2ccc(C(F)(F)F)nc2n1-c1ccc2[nH]ncc2c1` [Example 168, (S)-3-(1H-Indazol-5-yl)-2-sec-butyl-5-(trifluoromethyl)imidazo[4,5-b]pyridine], the IC50 is 6.31 nM. For `Cc1ccc2cc(C(C)C)n(-c3cc(F)c4c(c3)CC(=O)N4)c2n1` [Example 362, 7-Fluoro-5-(2-isopropyl-6-methyl-pyrrolo[2,3-b]pyridin-1-yl)indolin-2-one] the value was 0.0398 nM; for `Cc1ccnc2c1nc(C(F)(F)F)n2-c1cc(C)c2[nH]ncc2c1` [Example 203, 7-Methyl-3-(7-methyl-1H-indazol-5-yl)-2-(trifluoromethyl)imidazo[4,5-b]pyridine], 5.01 nM; for `Cc1cc(-n2c(C)nc3ccc(C(F)(F)F)nc32)cc2cn[nH]c12` [Example 319, 2-Methyl-3-(7-methyl-1H-indazol-5-yl)-5-(trifluoromethyl)imidazo[4,5-b]pyridine], 0.631 nM. To `Cc1cc2cccnc2n1-c1cc(Cl)c2c(c1)CC(=O)N2` [Example 338, 7-Chloro-5-(2-methylpyrrolo[2,3-b]pyridin-1-yl)indolin-2-one] belongs 7.94 nM; to `Nc1ccc2nc(-c3ccc(F)cc3)n(-c3ccc4[nH]c(=O)sc4c3)c2n1` [Example 82, 6-[5-Amino-2-(4-fluorophenyl)imidazo[4,5-b]pyridin-3-yl]-3H-1,3-benzothiazol-2-one], 63.1 nM; to `CCc1nc2ccc(C(F)(F)F)nc2n1-c1cc(Cl)c2[nH]ncc2c1` [Example 314, 3-(7-Chloro-1H-indazol-5-yl)-2-ethyl-5-(trifluoromethyl)imidazo[4,5-b]pyridine], 0.0316 nM.

For `Cc1cc(-n2c(C3CC3)cc3cccnc32)cc2c1NC(=O)C2` [Example 359, 5-(2-Cyclopropylpyrrolo[2,3-b]pyridin-1-yl)-7-methyl-indolin-2-one], the IC50 was 10 nM. For `Cc1cc(-n2c([C@H](C)F)nc3ccc(C(F)(F)F)nc32)cc2cn[nH]c12` (single isomer, unassigned) [Example 257, (*S)-2-(1-Fluoroethyl)-3-(7-methyl-1H-indazol-5-yl)-5-(trifluoromethyl)imidazo[4,5-b]pyridine] the value was 0.0501 nM. For `CC(C)c1nc2ccc(C(F)(F)F)nc2n1-c1ccc2[nH]ncc2c1` [Example 109, 3-(1H-Indazol-5-yl)-2-isopropyl-5-(trifluoromethyl)imidazo[4,5-b]pyridine] the value was 0.251 nM; for `Cc1ccc2nc(C3CCC3)n(-c3ccc4c(c3)CC(=O)N4)c2n1` [Example 74, 5-(2-Cyclobutyl-5-methyl-imidazo[4,5-b]pyridin-3-yl)indolin-2-one], 15.8 nM. To `Cc1ccc(-c2nc3ccc(C(F)(F)F)nc3n2-c2ccc3[nH]ncc3c2)cc1` [Example 123, 3-(1H-Indazol-5-yl)-2-(p-tolyl)-5-(trifluoromethyl)imidazo[4,5-b]pyridine] belongs 3.98 nM. For the molecule `Cc1ccc2nc(-c3ccc(F)cc3)n(-c3ccc4c(c3)CC(=O)N4)c2n1` [Example 35, 5-[2-(4-Fluorophenyl)-5-methyl-imidazo[4,5-b]pyridin-3-yl]indolin-2-one], the IC50 was 3.16 nM. To `O=c1[nH]c2ccc(-n3c(C(F)(F)F)nc4ccc(C(F)(F)F)nc43)cc2o1` [Example 236, 6-[2,5-Bis(trifluoromethyl)imidazo[4,5-b]pyridin-3-yl]-3H-1,3-benzoxazol-2-one] belongs 6.31 nM.

As for `O=C1Cc2cc(-n3c(-c4ccc(C(F)(F)F)cc4)nc4cccnc43)ccc2N1` [Example 178, 5-[2-[4-(Trifluoromethyl)phenyl]imidazo[4,5-b]pyridin-3-yl]indolin-2-one], the IC50 was 3160 nM. For `Fc1ccc(-c2nc3ccc(C4CC4)nc3n2-c2ccc3[nH]ncc3c2)cc1` [Example 86, 5-Cyclopropyl-2-(4-fluorophenyl)-3-(1H-indazol-5-yl)imidazo[4,5-b]pyridine] the value was 0.794 nM. For `CC(C)c1nc2ccc(C(F)(F)F)nc2n1-c1cc(Cl)c2c(c1)CC(=O)N2` [Example 299, 7-Chloro-5-[2-isopropyl-5-(trifluoromethyl)imidazo[4,5-b]pyridin-3-yl]indolin-2-one] the value was 0.2 nM; for `CC[C@H](C)c1nc2ccc(C(F)(F)F)nc2n1-c1cc(Cl)c2[nH]ncc2c1` (single isomer, unassigned) [Example 405, (*S)-2-(sec-Butyl)-3-(7-chloro-1H-indazol-5-yl)-5-(trifluoromethyl)-3H-imidazo[4,5-b]pyridine], 0.0631 nM. To `O=c1[nH]c2ccc(-n3c(C4CCCCC4)nc4ccc(C(F)(F)F)nc43)cc2s1` [Example 40, 6-[2-Cyclohexyl-5-(trifluoromethyl)imidazo[4,5-b]pyridin-3-yl]-3H-1,3-benzothiazol-2-one] belongs 0.158 nM.
